This test relates to chick spinal motoneurons. As to the kind of experiment: Motoneuron culture deprived of muscle extract, survival. Conditions: without muscle extract, treated between 14 and 24 hours, counted after 3 days. Type of test: cell-based. The text has this: A tissue culture model system that allows isolation of a relatively pure population of motoneurons whose survival is dependent on muscle extract, a potent source of target-derived trophic support, was used to test the ability of peptide inhibitors of ICE to block motoneuron cell death (Milligan et al., J Neurobiology 25:1005-1016 (1994) and Block-Gallego et al., Development. 111:221-232 (1991)). The death of motoneurons deprived of trophic support in vitro requires new gene expression and occurs by apoptosis (Milligan et al., J. Neurobiology 25:1005-1016 (1994)). Motoneurons deprived of trophic support at the time of plating become irreversibly committed to undergo cell death after 16-18 hours (Milligan et al., J. Neurobiology 25:1005-1016 (1994)). […] When motoneurons are treated with peptide inhibitors in the absence of muscle extract for three days and subsequently supplemented on day three with muscle extract, they continue to survive, and by six days appear as healthy and differentiated as the motoneurons that were continuously supplied with muscle extract (FIGS. 12A, 12B, 15G). Thus, motoneurons rescued for 3 days by ICE inhibitors remain capable of responding to trophic factors present in muscle extract.
Methods for motoneuron cultures. […]

Regarding “Acetyl-Tyr-Val-Ala-Asp-aldehyde [Ac-YVAD-CHO]”, the motoneuron death result was “inhibitory effects on motoneuron death”.

(Values after US6939850B2, “Altered human interleukin-1β convertase (ICE), NEDD-2, and C. elegans ced-3 polypeptides and uses therefor” (Massachusetts Institute of Technology, priority 1992, dated 2005).)
